Source: patent US20070219266A1, “N-Acylated-3-(Benzoyl)-Pyrrolidines as 11-Beta-HSD1 Inhibitors Useful for the Treatment of Metabolic Disorders” (priority 2003, published 2007)

The compounds below were run against T1, human 11βHSD1 (Homo sapiens, UniProt P28845) (assay: HeLa GRE4-βGal/11βHSD1 cell reporter assay (cortisone to cortisol conversion, β-galactosidase readout)). Settings: HeLa GRE4-βGal/11βHSD1 cells, cortisone 1 μM, overnight incubation, absorbance at 570 nm.
T1 construct: stably transfected with a construct containing full-length human 11βHSD1 enzyme (in pCMVHyg); expressed in transfected cells
Assay type: cell-based
From the text: HeLa cells (human cervical carcinoma derived cells) were stably transfected with a construct containing four copies of the glucocorticoid response element (GRE) linked to a beta-galactosidase reporter gene (3 kb lac Z gene derived from pSV-B-galactosidase). These cells were then further stably transfected with a construct containing full-length human 11βHSD1 enzyme (in pCMVHyg) to create GRE4-βGal/11βHSD1 cells. The principal of the assay is as follows. Cortisone is freely taken up by the cells and is converted to cortisol by 11βHSD1 oxo-reductase activity and cortisol (but not cortisone) binds to and activates the glucocorticoid receptor. Activated glucocorticoid receptor then binds to the GRE and initiates transcription and translation of β-galactosidase. Enzyme activity can then be assayed with high sensitivity by colourimetric assay.
Cells were routinely cultured in DMEM (Invitrogen, Paisley, Renfrewshire, UK) containing 10% foetal calf serum (LabTech), 1% glutamine (Invitrogen), 1% penicillin & streptomycin (Invitrogen), 0.5 mg/ml G418 (Invitrogen) & 0.5 mg/ml hygromycin (Boehringer). Assay media was phenol red free-DMEM containing 1% glutamine, 1% penicillin & streptomycin.
Compounds (1 mM) to be tested were dissolved in dimethyl sulphoxide (DMSO) and serially diluted into assay media containing […]. […]
A cocktail (25 μl) consisting of 10× Z-buffer (600 mM Na2HPO4, 400 mM NaH2PO4.2H2O, 100 mM KCl, 10 mM MgSO4.7H2O, 500 mM β-mercaptoethanol, pH 7.0), SDS (0.2%), chlorophenol red-β-D-galactopyranoside (5 mM, Roche Diagnostics) was added per well and plates incubated at 37° C. for 3-4 hours. β-Galactosidase activity was indicated by a yellow to red colour change (absorbance at 570 nm) measured using a Tecan Spectrafluor Ultra.
The calculation of median inhibitory concentration (IC50) values for the inhibitors was performed using Origin 6.0 (Microcal Software, Northampton Mass. USA). Dose response curves for each inhibitor were plotted as OD units at each inhibitor concentration with relation to a maximum signal (cortisone, no compound) and IC50 values calculated. […]

T1 sequence (P28845 whole entry): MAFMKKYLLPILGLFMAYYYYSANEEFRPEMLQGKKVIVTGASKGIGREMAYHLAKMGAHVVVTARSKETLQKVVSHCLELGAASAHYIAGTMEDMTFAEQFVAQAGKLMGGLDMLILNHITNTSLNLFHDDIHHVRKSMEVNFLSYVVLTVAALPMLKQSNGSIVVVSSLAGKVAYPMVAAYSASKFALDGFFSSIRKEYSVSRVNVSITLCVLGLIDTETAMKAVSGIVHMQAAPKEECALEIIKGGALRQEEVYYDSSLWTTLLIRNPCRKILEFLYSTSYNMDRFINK

Which IC50 does the source give for `O=C(c1ccc(F)cc1)C1CCN(C(=O)c2ccc(Cl)cc2)C1` (stereo not drawn) [Example 5] here?
The IC50 was 75 nM.

`O=C(c1ccc(F)cc1)C1CCN(C(=O)c2ccccc2Cl)C1` (stereo not drawn) [Example 7] was tested. Which IC50 did it give?
Its IC50 is 70 nM.

Which IC50 does the source give for `O=C(c1ccc(F)cc1)C1CCN(S(=O)(=O)c2ccc(F)cc2)C1` (stereo not drawn) [Example 18] here?
Its IC50 is 447 nM.
